Reference: ChEMBL document CHEMBL5120977, “Orexin Receptor Agonists as Possible Treatment for Narcolepsy and Idiopathic Hypersomnia” (ACS Med Chem Lett, 2022)
pEC50: −log10 of the molar value.

Molecular target: T1, Orexin receptor type 2 (Homo sapiens, UniProt O43614)
T1 sequence (O43614 whole entry): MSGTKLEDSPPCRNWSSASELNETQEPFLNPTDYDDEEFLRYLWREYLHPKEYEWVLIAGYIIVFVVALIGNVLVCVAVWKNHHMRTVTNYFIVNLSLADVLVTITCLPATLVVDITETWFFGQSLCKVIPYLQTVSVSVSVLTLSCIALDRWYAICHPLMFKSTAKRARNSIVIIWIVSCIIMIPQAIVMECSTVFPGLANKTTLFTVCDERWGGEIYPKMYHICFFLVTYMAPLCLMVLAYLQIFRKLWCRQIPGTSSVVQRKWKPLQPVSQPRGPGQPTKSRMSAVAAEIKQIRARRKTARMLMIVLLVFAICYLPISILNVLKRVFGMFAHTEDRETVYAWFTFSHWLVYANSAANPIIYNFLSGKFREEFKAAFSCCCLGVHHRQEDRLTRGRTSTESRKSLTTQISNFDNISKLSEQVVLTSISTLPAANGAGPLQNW
Experiment: Agonist activity at human OX2R expressed in CHO cells
Assay type: functional, cell-based

Compound: CCN(C(=O)N[C@@H](C1CCCC(F)(F)C1)C(F)(F)F)[C@H](C)c1cccc(-c2cn3ccnc3c(OC)n2)c1 (stereo partly specified)
- pEC50: 9.05
